Measurements from patent US11945813B2, “5-substituted 4-amino-1H-benzo[c][1,2,6]thiadiazine 2,2-dioxides and formulations and uses thereof” (Firmenich Incorporated, priority 2018, dated 2024).

Target: T1, T1R2/T1R3 taste receptor (Homo sapiens, UniProt Q8TE23)
T1 sequence (Q8TE23 20-839): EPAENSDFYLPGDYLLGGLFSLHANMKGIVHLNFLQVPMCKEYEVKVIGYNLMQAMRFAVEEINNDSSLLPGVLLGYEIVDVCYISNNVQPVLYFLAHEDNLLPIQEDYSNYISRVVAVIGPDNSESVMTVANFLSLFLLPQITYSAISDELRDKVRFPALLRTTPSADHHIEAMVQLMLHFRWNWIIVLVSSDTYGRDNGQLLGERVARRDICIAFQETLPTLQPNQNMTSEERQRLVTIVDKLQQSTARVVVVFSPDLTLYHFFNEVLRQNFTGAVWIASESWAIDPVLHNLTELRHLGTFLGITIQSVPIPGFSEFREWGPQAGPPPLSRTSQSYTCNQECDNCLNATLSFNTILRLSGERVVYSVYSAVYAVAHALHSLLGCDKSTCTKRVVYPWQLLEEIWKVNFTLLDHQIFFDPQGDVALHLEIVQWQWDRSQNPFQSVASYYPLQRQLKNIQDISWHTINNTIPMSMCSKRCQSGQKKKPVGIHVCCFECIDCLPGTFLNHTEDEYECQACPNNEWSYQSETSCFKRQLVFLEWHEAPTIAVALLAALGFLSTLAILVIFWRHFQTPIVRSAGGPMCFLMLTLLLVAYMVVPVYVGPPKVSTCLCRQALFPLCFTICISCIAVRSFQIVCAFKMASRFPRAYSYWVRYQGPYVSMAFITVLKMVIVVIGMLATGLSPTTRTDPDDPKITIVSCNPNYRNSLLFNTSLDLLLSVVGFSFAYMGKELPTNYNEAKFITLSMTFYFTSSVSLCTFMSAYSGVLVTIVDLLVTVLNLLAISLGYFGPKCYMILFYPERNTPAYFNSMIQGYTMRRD
T1 sequence (Q7RTX0 21-852 partner): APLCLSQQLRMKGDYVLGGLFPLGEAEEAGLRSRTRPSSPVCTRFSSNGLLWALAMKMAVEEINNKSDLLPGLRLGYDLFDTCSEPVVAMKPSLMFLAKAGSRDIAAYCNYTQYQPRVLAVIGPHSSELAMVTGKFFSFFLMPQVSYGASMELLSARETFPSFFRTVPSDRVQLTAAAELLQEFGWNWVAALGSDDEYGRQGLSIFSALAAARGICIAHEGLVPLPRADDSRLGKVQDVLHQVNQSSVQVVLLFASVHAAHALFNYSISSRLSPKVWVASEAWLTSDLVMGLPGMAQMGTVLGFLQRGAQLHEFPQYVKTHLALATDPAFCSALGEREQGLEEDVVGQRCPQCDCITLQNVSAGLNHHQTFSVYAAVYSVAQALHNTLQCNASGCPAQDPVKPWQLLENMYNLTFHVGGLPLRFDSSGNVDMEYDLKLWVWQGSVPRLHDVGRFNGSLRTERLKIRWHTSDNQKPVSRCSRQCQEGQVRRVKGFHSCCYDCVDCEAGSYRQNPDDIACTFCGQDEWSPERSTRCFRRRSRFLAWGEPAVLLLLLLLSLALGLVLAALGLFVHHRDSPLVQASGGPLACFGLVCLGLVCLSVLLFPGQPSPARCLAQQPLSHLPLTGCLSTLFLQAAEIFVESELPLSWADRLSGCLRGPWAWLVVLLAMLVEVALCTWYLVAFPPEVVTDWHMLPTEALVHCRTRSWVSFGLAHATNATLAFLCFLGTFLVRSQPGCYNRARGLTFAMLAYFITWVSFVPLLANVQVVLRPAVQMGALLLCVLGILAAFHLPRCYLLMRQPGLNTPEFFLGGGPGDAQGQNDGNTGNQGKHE
Test: Receptor-based assay: sweetener EC50 alone and with test compound (enhancement ratio)
Type: cell-based
Conditions: for Sucralose Enhancement EC50 Ratio: sweetener sucralose; for Sucrose Enhancement EC50 Ratio: sweetener sucrose; for Fructose Enhancement EC50 Ratio: sweetener fructose
Method: Potencies (EC50 values) for the sweeteners sucrose, sucralose, and fructose were measured against the T1R2/T1R3 taste receptor. EC50 was determined using the sweetener alone and in the presence of 3 μM, 10 μM, or 50 μM of test compound. EC50 ratios were calculated by the ratio of potency with and without the test compound. An “A” value indicates an enhancement ratio of greater than 20. A “B” value indicates an enhancement ratio from 10 to 20. A “C” value indicates an enhancement ratio greater than 1 and less than 10.

SMILES	Sucralose Enhancement EC50 Ratio (10 μM test compound)	Sucralose Enhancement EC50 Ratio (50 μM test compound)	Sucrose Enhancement EC50 Ratio (3 μM test compound)	Sucrose Enhancement EC50 Ratio (10 μM test compound)	Sucrose Enhancement EC50 Ratio (50 μM test compound)	Fructose Enhancement EC50 Ratio (10 μM test compound)	Fructose Enhancement EC50 Ratio (50 μM test compound)
CN1CCN(C(=O)c2ccnc(N3CCC[C@H](COc4cccc5c4C(N)=NS(=O)(=O)N5)C3)c2)CC1 [Compound 615]	A (An “A” value indicates an enhancement ratio of greater than 20)	A (An “A” value indicates an enhancement ratio of greater than 20)	C (A “C” value indicates an enhancement ratio greater than 1 and less than 10)	C (A “C” value indicates an enhancement ratio greater than 1 and less than 10)	B (A “B” value indicates an enhancement ratio from 10 to 20)		
CCN(CC)C(=O)c1ccnc(N2CCC[C@H](COc3cccc4c3C(N)=NS(=O)(=O)N4)C2)c1 [Compound 611]	B (A “B” value indicates an enhancement ratio from 10 to 20)	A (An “A” value indicates an enhancement ratio of greater than 20)	C (A “C” value indicates an enhancement ratio greater than 1 and less than 10)	B (A “B” value indicates an enhancement ratio from 10 to 20)	C (A “C” value indicates an enhancement ratio greater than 1 and less than 10)	C (A “C” value indicates an enhancement ratio greater than 1 and less than 10)	
CN(C)C(=O)c1ccnc(N2CCC[C@H](COc3cccc4c3C(N)=NS(=O)(=O)N4)C2)c1 [Compound 610]	A (An “A” value indicates an enhancement ratio of greater than 20)	A (An “A” value indicates an enhancement ratio of greater than 20)		C (A “C” value indicates an enhancement ratio greater than 1 and less than 10)	B (A “B” value indicates an enhancement ratio from 10 to 20)	C (A “C” value indicates an enhancement ratio greater than 1 and less than 10)	C (A “C” value indicates an enhancement ratio greater than 1 and less than 10)
CN(C)C(=O)c1cccc(N2CCC[C@H](COc3cccc4c3C(N)=NS(=O)(=O)N4)C2)n1 [Compound 410]	B (A “B” value indicates an enhancement ratio from 10 to 20)	A (An “A” value indicates an enhancement ratio of greater than 20)	C (A “C” value indicates an enhancement ratio greater than 1 and less than 10)	B (A “B” value indicates an enhancement ratio from 10 to 20)	B (A “B” value indicates an enhancement ratio from 10 to 20)		C (A “C” value indicates an enhancement ratio greater than 1 and less than 10)
NC1=NS(=O)(=O)Nc2cccc(OC[C@H]3CCCN(c4cc(C(=O)NC5CC5)ccn4)C3)c21 [Compound 607]			A (An “A” value indicates an enhancement ratio of greater than 20)	B (A “B” value indicates an enhancement ratio from 10 to 20)	C (A “C” value indicates an enhancement ratio greater than 1 and less than 10)	C (A “C” value indicates an enhancement ratio greater than 1 and less than 10)	
CCNC(=O)c1ccnc(N2CCC[C@H](COc3cccc4c3C(N)=NS(=O)(=O)N4)C2)c1 [Compound 601]			C (A “C” value indicates an enhancement ratio greater than 1 and less than 10)	C (A “C” value indicates an enhancement ratio greater than 1 and less than 10)	A (An “A” value indicates an enhancement ratio of greater than 20)	C (A “C” value indicates an enhancement ratio greater than 1 and less than 10)	C (A “C” value indicates an enhancement ratio greater than 1 and less than 10)
CCCNC(=O)c1ccc(N2CCC[C@H](COc3cccc4c3C(N)=NS(=O)(=O)N4)C2)nc1 [Compound 502]	A (An “A” value indicates an enhancement ratio of greater than 20)	A (An “A” value indicates an enhancement ratio of greater than 20)	C (A “C” value indicates an enhancement ratio greater than 1 and less than 10)	C (A “C” value indicates an enhancement ratio greater than 1 and less than 10)	C (A “C” value indicates an enhancement ratio greater than 1 and less than 10)	C (A “C” value indicates an enhancement ratio greater than 1 and less than 10)	C (A “C” value indicates an enhancement ratio greater than 1 and less than 10)
NC1=NS(=O)(=O)Nc2cccc(OC[C@H]3CCCN(c4ccc(C(=O)NC5CCCC5)cn4)C3)c21 [Compound 508]	B (A “B” value indicates an enhancement ratio from 10 to 20)	A (An “A” value indicates an enhancement ratio of greater than 20)	C (A “C” value indicates an enhancement ratio greater than 1 and less than 10)	C (A “C” value indicates an enhancement ratio greater than 1 and less than 10)	C (A “C” value indicates an enhancement ratio greater than 1 and less than 10)		C (A “C” value indicates an enhancement ratio greater than 1 and less than 10)
NC1=NS(=O)(=O)Nc2cccc(OC[C@H]3CCCN(c4cc(C(=O)N5CCOCC5)ccn4)C3)c21 [Compound 614]	A (An “A” value indicates an enhancement ratio of greater than 20)	A (An “A” value indicates an enhancement ratio of greater than 20)	C (A “C” value indicates an enhancement ratio greater than 1 and less than 10)		A (An “A” value indicates an enhancement ratio of greater than 20)		C (A “C” value indicates an enhancement ratio greater than 1 and less than 10)
NC1=NS(=O)(=O)Nc2cccc(OC[C@H]3CCCN(c4cccc(C(=O)NCC5CC5)n4)C3)c21 [Compound 417]	A (An “A” value indicates an enhancement ratio of greater than 20)	A (An “A” value indicates an enhancement ratio of greater than 20)	C (A “C” value indicates an enhancement ratio greater than 1 and less than 10)	C (A “C” value indicates an enhancement ratio greater than 1 and less than 10)	C (A “C” value indicates an enhancement ratio greater than 1 and less than 10)		C (A “C” value indicates an enhancement ratio greater than 1 and less than 10)
NC1=NS(=O)(=O)Nc2cccc(OC[C@H]3CCCN(c4ccc(C(=O)N5CCCC5)cn4)C3)c21 [Compound 512]	A (An “A” value indicates an enhancement ratio of greater than 20)	A (An “A” value indicates an enhancement ratio of greater than 20)	C (A “C” value indicates an enhancement ratio greater than 1 and less than 10)	C (A “C” value indicates an enhancement ratio greater than 1 and less than 10)	C (A “C” value indicates an enhancement ratio greater than 1 and less than 10)		C (A “C” value indicates an enhancement ratio greater than 1 and less than 10)
